From ChEMBL document CHEMBL1201862, “PubChem BioAssay data set” (2004)
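Interpolation was linear, between the two tested concentrations surrounding the appropriate level; five concentrations were tested over 48 hours in 96-well plates. GI50 = concentration required for 50% inhibition of growth.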 Calls of active or inactive are those of the source. Cut-off read from the data, not from the text of the source: active = GI50 up to about 1.1 µM and inactive = higher.

How the values were obtained:
Assay in all cases: growth of human tumour cells (NCI), 48 h
DLD-1 = test system: DLD-1
HOP-18 = test system: HOP-18
KM-20L2 = test system: KM-20L2
RXF 631 = test system: RXF 631
SNB-78 = test system: SNB-78
XF498 = test system: XF498
DMS-273 = test system: DMS-273
BT-549 = test system: BT-549
MDA-MB-231 = test system: MDA-MB-231

O=C(CC1SC(Nc2ccccc2Cl)=NC1=O)Nc1ccc(Cl)cc1Cl (centres undefined)
GI50 (DLD-1): > 100 µM (inactive)
GI50 (HOP-18): > 100 µM (inactive)
GI50 (KM-20L2): > 100 µM (inactive)
GI50 (RXF 631): > 100 µM (inactive)
GI50 (SNB-78): > 100 µM (inactive)
GI50 (XF498): > 100 µM (inactive)

COc1ccc(C2N3CCCCC3[C@@H]3c4[nH]c5ccccc5c4CCN23)c(OC)c1 (some centres undefined)
GI50 (DLD-1): 33.4 µM (inactive)
GI50 (DMS-273): 16.4 µM (inactive)
GI50 (HOP-18): > 100 µM (inactive)
GI50 (KM-20L2): 18.8 µM (inactive)
GI50 (SNB-78): 18.9 µM (inactive)
GI50 (XF498): 14.1 µM (inactive)

Cc1c2ccncc2c(C)c2c1[nH]c1ccc(OC(C)C)cc12
GI50 (DLD-1): 1.35 µM (inactive)
GI50 (DMS-273): 0.681 µM (active)
GI50 (HOP-18): 0.318 µM (active)
GI50 (KM-20L2): 1.18 µM (inactive)
GI50 (SNB-78): 2.89 µM (inactive)
GI50 (XF498): 1.52 µM (inactive)

COC(=O)C12CC3CC(C1)CC(C(=O)OC)(C3)C2
GI50 (DLD-1): > 100 µM (inactive)
GI50 (DMS-273): > 100 µM (inactive)
GI50 (HOP-18): > 100 µM (inactive)
GI50 (KM-20L2): > 100 µM (inactive)
GI50 (SNB-78): > 100 µM (inactive)
GI50 (XF498): > 100 µM (inactive)

Cc1ccccc1C(=O)Oc1ccc(Oc2ccccc2)cc1
GI50 (DLD-1): > 100 µM (inactive)
GI50 (DMS-273): > 100 µM (inactive)
GI50 (HOP-18): > 100 µM (inactive)
GI50 (KM-20L2): > 100 µM (inactive)
GI50 (SNB-78): > 100 µM (inactive)
GI50 (XF498): > 100 µM (inactive)

O=C(N/N=C/c1ccccc1O)c1cccc([N+](=O)[O-])c1
GI50 (DLD-1): 45.7 µM (inactive)
GI50 (DMS-273): 6.43 µM (inactive)
GI50 (HOP-18): 28.5 µM (inactive)
GI50 (KM-20L2): 8.49 µM (inactive)
GI50 (SNB-78): > 86.3 µM (inactive)
GI50 (XF498): 92.3 µM (inactive)

Nc1cc2c3c(cccc3c1)C(=O)N(CCN1CCN(CCN3C(=O)c4cccc5cc(N)cc(c45)C3=O)CC1)C2=O
GI50 (DMS-273): > 100 µM (inactive)
GI50 (HOP-18): > 100 µM (inactive)
GI50 (KM-20L2): > 100 µM (inactive)
GI50 (RXF 631): > 100 µM (inactive)
GI50 (XF498): > 100 µM (inactive)

CCCC1=C(CC)C(C(=O)Nc2c(C)cccc2C)=NC(S)N1 (centres undefined)
GI50 (DLD-1): > 100 µM (inactive)
GI50 (DMS-273): > 100 µM (inactive)
GI50 (HOP-18): > 100 µM (inactive)
GI50 (KM-20L2): > 100 µM (inactive)
GI50 (SNB-78): > 100 µM (inactive)
GI50 (XF498): > 100 µM (inactive)

Cc1ccc(C(=O)Nc2ccc(S(=O)(=O)O)c3cc(S(=O)(=O)O)cc(S(=O)(=O)O)c23)cc1NC(=O)c1cccc(NC(=O)Nc2cccc(C(=O)Nc3cc(C(=O)Nc4ccc(S(=O)(=O)O)c5cc(S(=O)(=O)O)cc(S(=O)(=O)O)c45)ccc3C)c2)c1 [SURAMIN]
GI50 (BT-549): 95.7 µM (inactive)
GI50 (DLD-1): 97.5 µM (inactive)
GI50 (DMS-273): 39.8 µM (inactive)
GI50 (HOP-18): > 52.4 µM (inactive)
GI50 (KM-20L2): 34.6 µM (inactive)
GI50 (MDA-MB-231): > 100 µM (inactive)
GI50 (SNB-78): > 71.3 µM (inactive)
GI50 (XF498): 27 µM (inactive)

CSc1ccc2c(cc1=O)C(NC(=O)c1ccc(C#N)cc1)CCc1cc(O)c(O)c(O)c1-2 (centres undefined)
GI50 (DLD-1): 23.1 µM (inactive)
GI50 (DMS-273): 34.9 µM (inactive)
GI50 (KM-20L2): 24.7 µM (inactive)
GI50 (RXF 631): 49.8 µM (inactive)
GI50 (SNB-78): 5.58 µM (inactive)
GI50 (XF498): 26.8 µM (inactive)

Nc1c(C(=O)NC23CC4CC(CC(C4)C2)C3)[n+]([O-])c2ccccc2[n+]1[O-]
GI50 (DLD-1): > 100 µM (inactive)
GI50 (DMS-273): > 100 µM (inactive)
GI50 (HOP-18): > 100 µM (inactive)
GI50 (KM-20L2): > 100 µM (inactive)
GI50 (SNB-78): > 100 µM (inactive)
GI50 (XF498): > 100 µM (inactive)

Cc1ccc(C)c(NC(=O)CC2SC(Nc3ccccc3Cl)=NC2=O)c1 (centres undefined)
GI50 (DLD-1): 77.4 µM (inactive)
GI50 (DMS-273): > 100 µM (inactive)
GI50 (HOP-18): > 100 µM (inactive)
GI50 (KM-20L2): > 100 µM (inactive)
GI50 (RXF 631): > 100 µM (inactive)
GI50 (SNB-78): > 100 µM (inactive)
GI50 (XF498): > 100 µM (inactive)

Cc1ccc(Oc2ccc([N+](=O)[O-])cc2[N+](=O)[O-])c(C)c1
GI50 (DLD-1): 56.4 µM (inactive)
GI50 (DMS-273): 28.1 µM (inactive)
GI50 (KM-20L2): > 10 µM (inactive)
GI50 (RXF 631): 21.4 µM (inactive)
GI50 (SNB-78): 61.4 µM (inactive)
GI50 (XF498): 42.1 µM (inactive)

Cc1ccccc1-n1c(C)nc(-c2ccccc2)cc1=O
GI50 (DLD-1): > 100 µM (inactive)
GI50 (DMS-273): > 100 µM (inactive)
GI50 (HOP-18): > 100 µM (inactive)
GI50 (KM-20L2): > 100 µM (inactive)
GI50 (RXF 631): > 100 µM (inactive)
GI50 (SNB-78): > 100 µM (inactive)

CSc1nc(NC2OCC(OC(C)=O)C(OC(C)=O)C2OC(C)=O)c(/N=C(\C)C(C)=O)c(=O)n1C (centres undefined)
GI50 (DLD-1): > 100 µM (inactive)
GI50 (DMS-273): > 100 µM (inactive)
GI50 (HOP-18): > 100 µM (inactive)
GI50 (KM-20L2): > 100 µM (inactive)
GI50 (RXF 631): > 100 µM (inactive)
GI50 (SNB-78): > 100 µM (inactive)
GI50 (XF498): > 100 µM (inactive)

CCOC(=O)Cc1nc2ccc3c(c2nc1O)C(=O)c1ccccc1C3=O
GI50 (DLD-1): 23.7 µM (inactive)
GI50 (DMS-273): 40.5 µM (inactive)
GI50 (HOP-18): 16 µM (inactive)
GI50 (KM-20L2): > 100 µM (inactive)
GI50 (RXF 631): 39.5 µM (inactive)
GI50 (SNB-78): 70.5 µM (inactive)
GI50 (XF498): 52.8 µM (inactive)

COc1cc(-c2nnc3n2NC=C(C(=O)O)S3)cc(OC)c1OC
GI50 (DLD-1): > 57.8 µM (inactive)
GI50 (DMS-273): > 60.3 µM (inactive)
GI50 (HOP-18): > 70.1 µM (inactive)
GI50 (KM-20L2): > 59.2 µM (inactive)
GI50 (RXF 631): > 100 µM (inactive)
GI50 (SNB-78): > 100 µM (inactive)
GI50 (XF498): > 100 µM (inactive)

COc1ccc(-c2cc(=O)c3c(O)c(OC)c(O)c(OC)c3o2)cc1OC
GI50 (DLD-1): 54.8 µM (inactive)
GI50 (DMS-273): 54.1 µM (inactive)
GI50 (HOP-18): 54.3 µM (inactive)
GI50 (KM-20L2): > 100 µM (inactive)
GI50 (SNB-78): 42 µM (inactive)
GI50 (XF498): 78.3 µM (inactive)

CCCN1C(=O)CNC(=O)c2[nH]cnc21
GI50 (DLD-1): > 100 µM (inactive)
GI50 (HOP-18): > 100 µM (inactive)
GI50 (KM-20L2): > 100 µM (inactive)
GI50 (SNB-78): > 100 µM (inactive)
GI50 (XF498): > 100 µM (inactive)

CC1(C)CC(=O)C(CC2C(=O)CCCC2=O)C(=O)C1
GI50 (DLD-1): > 100 µM (inactive)
GI50 (DMS-273): > 100 µM (inactive)
GI50 (HOP-18): > 100 µM (inactive)
GI50 (KM-20L2): > 100 µM (inactive)
GI50 (SNB-78): > 100 µM (inactive)
GI50 (XF498): 33.2 µM (inactive)

O=C1OC(c2ccccc2)=N/C1=C\c1cc(Cl)ccc1Cl
GI50 (DLD-1): 33.8 µM (inactive)
GI50 (HOP-18): > 100 µM (inactive)
GI50 (KM-20L2): > 100 µM (inactive)
GI50 (RXF 631): 25 µM (inactive)
GI50 (SNB-78): 44.5 µM (inactive)

CCC(C)SC1SCC2C(=O)N(C)C3(CC3C)C(=O)OCC(NC(=O)c3nc4ccccc4cc3O)C(=O)NC(C)C(=O)N(C)C1C(=O)N(C)C1(CC1C)C(=O)OCC(NC(=O)c1nc3ccccc3cc1O)C(=O)NC(C)C(=O)N2C (centres undefined)
GI50 (BT-549): 4.35e-05 µM (active)
GI50 (DLD-1): 0.0002 µM (active)
GI50 (DMS-273): 2.3e-05 µM (active)
GI50 (HOP-18): 0.000232 µM (active)
GI50 (KM-20L2): 0.000137 µM (active)
GI50 (MDA-MB-231): 5.78e-05 µM (active)
GI50 (RXF 631): 0.000195 µM (active)
GI50 (SNB-78): 0.01 µM (active)
GI50 (XF498): 5.07e-05 µM (active)

Cc1ccc(S(=O)(=O)NC(=O)C2(Br)S(=O)(=O)OCCOS2(=O)=O)cc1
GI50 (DLD-1): > 100 µM (inactive)
GI50 (DMS-273): > 100 µM (inactive)
GI50 (KM-20L2): > 100 µM (inactive)
GI50 (SNB-78): > 100 µM (inactive)
GI50 (XF498): > 100 µM (inactive)

COC(=O)C(=O)C(C(=O)C(=O)Nc1ccccc1C(N)=O)c1nc2ccc([N+](=O)[O-])cc2nc1O (centres undefined)
GI50 (DLD-1): > 100 µM (inactive)
GI50 (DMS-273): > 100 µM (inactive)
GI50 (HOP-18): > 100 µM (inactive)
GI50 (KM-20L2): > 100 µM (inactive)
GI50 (RXF 631): > 100 µM (inactive)
GI50 (SNB-78): > 100 µM (inactive)
GI50 (XF498): > 100 µM (inactive)

Cn1cnc(S[C@H]2[C@H]3C(=O)C=C4S[C@H]5C[C@]42C2=C(N5)C(=O)c4[nH]cc5c4C2=[N+]3CC5)c1C[C@H](N)C(=O)O
GI50 (DLD-1): 17.2 µM (inactive)
GI50 (DMS-273): 12.7 µM (inactive)
GI50 (HOP-18): 52.1 µM (inactive)
GI50 (KM-20L2): 4.47 µM (inactive)
GI50 (SNB-78): 20.9 µM (inactive)
GI50 (XF498): 15.3 µM (inactive)

Cc1cnc[nH]c1=O
GI50 (DLD-1): > 100 µM (inactive)
GI50 (DMS-273): > 100 µM (inactive)
GI50 (HOP-18): > 100 µM (inactive)
GI50 (KM-20L2): > 100 µM (inactive)
GI50 (RXF 631): > 100 µM (inactive)
GI50 (SNB-78): > 100 µM (inactive)

C=CCn1cc(C(=O)NC(=O)NCCCCCOC(=O)CCCCCCCCCCC(=O)OCCCCCNC(=O)NC(=O)c2cn(CC=C)c(=O)n(C)c2=O)c(=O)n(C)c1=O
GI50 (DLD-1): > 100 µM (inactive)
GI50 (DMS-273): > 100 µM (inactive)
GI50 (HOP-18): 71.8 µM (inactive)
GI50 (KM-20L2): > 100 µM (inactive)
GI50 (SNB-78): > 100 µM (inactive)
GI50 (XF498): > 100 µM (inactive)

COc1cccc(-c2cc(=O)c3cc(C)c(C)c(C(=O)O)c3o2)c1
GI50 (DLD-1): > 100 µM (inactive)
GI50 (DMS-273): > 100 µM (inactive)
GI50 (KM-20L2): > 100 µM (inactive)
GI50 (RXF 631): > 100 µM (inactive)
GI50 (SNB-78): > 100 µM (inactive)
GI50 (XF498): > 100 µM (inactive)
